Read-outs that look alike come from different tables or passages of the source. Blank lines part the entries; values can stand above or below the molecule they belong to.
Tests used:
β-glucosidase (G3ase) [1] = target: T1, β-glucosidase (G3ase) (Komagataeibacter sucrofermentans, UniProt O24749); experiment: Effect of metal ions and chemical agents on β-glucosidase (G3ase) activity; type: biochemical, Acetobacter xylinum subsp. sucrofermentans BPR 2001; conditions: for activity at 1000 µM: read-out: Relative activity (%)
Method: After reaction at 30° C. for 2 hr, a reaction solution (300 μl) of a glucose-measuring kit (Glucose CII test Wako: Wako Pure Chemical Industries, Ltd.) was added to the mixture, and reacted for 15 min at a room temperature, followed by the determination of an amount of glucose based on absorbance at 505 nm.

β-glucosidase (G3ase) [2] = target: T1, β-glucosidase (G3ase); experiment: Inhibition constants of G3ase inhibitors; type: biochemical, Acetobacter xylinum subsp. sucrofermentans BPR 2001
β-glucosidase (G3ase) [3] = target: T1, β-glucosidase (G3ase); experiment: Reactivity of G3ase with cellulosic substrates (glucose produced); type: biochemical, Acetobacter xylinum subsp. sucrofermentans BPR 2001
β-glucosidase (G3ase) [4] = target: T1, β-glucosidase (G3ase); type: biochemical, Acetobacter xylinum subsp. sucrofermentans BPR 2001
[5] = substrate: OC[C@H]1O[C@@H](O[C@H]2[C@H](O)[C@@H](O)[C@H](O[C@H]3[C@H](O)[C@@H](O)[C@H](O[C@H]4[C@H](O)[C@@H](O)C(O)O[C@@H]4CO)O[C@@H]3CO)O[C@@H]2CO)[C@H](O)[C@@H](O)[C@@H]1O; experiment: purified protein, by the assay type; conditions: other: substrate of G3ase
[6] = substrate: OC[C@H]1O[C@@H](O[C@H]2[C@H](O)[C@@H](O)[C@H](O[C@H]3[C@H](O)[C@@H](O)C(O)O[C@@H]3CO)O[C@@H]2CO)[C@H](O)[C@@H](O)[C@@H]1O; experiment: purified protein, by the assay type; conditions: other: substrate of G3ase
[7] = substrate: OC[C@H]1O[C@@H](O[C@H]2[C@H](O)[C@@H](O)[C@H](O[C@H]3[C@H](O)[C@@H](O)[C@H](O[C@H]4[C@H](O)[C@@H](O)[C@H](O[C@H]5[C@H](O)[C@@H](O)[C@H](O[C@H]6[C@H](O)[C@@H](O)C(O)O[C@@H]6CO)O[C@@H]5CO)O[C@@H]4CO)O[C@@H]3CO)O[C@@H]2CO)[C@H](O)[C@@H](O)[C@@H]1O; experiment: purified protein, by the assay type; conditions: other: substrate of G3ase
[8] = substrate: OC[C@H]1O[C@@H](O[C@H]2[C@H](O)[C@@H](O)[C@H](O[C@H]3[C@H](O)[C@@H](O)[C@H](O[C@H]4[C@H](O)[C@@H](O)[C@H](O[C@H]5[C@H](O)[C@@H](O)C(O)O[C@@H]5CO)O[C@@H]4CO)O[C@@H]3CO)O[C@@H]2CO)[C@H](O)[C@@H](O)[C@@H]1O; experiment: purified protein, by the assay type; type: biochemical, Acetobacter xylinum subsp. sucrofermentans BPR 2001; conditions: other: substrate of G3ase
[9] = compound 1 mM, non-added sample = 100%
[10] = metal ions and chemical agents 1 mM

activity at 1000 µM (β-glucosidase (G3ase) [1]; [9]): 0%
Effect on β-glucosidase (G3ase) activity (in words) (β-glucosidase (G3ase) [1]; [10]): completely inactivated
Molecule: O=C1CCC(=O)N1Br [NBS, N-bromosuccinimide]

Relative activity (%) (β-glucosidase (G3ase) [1]; [9]): 106%
Molecule: OCCS [2ME, 2-mercaptoethanol]
Effect on β-glucosidase (G3ase) activity (in words) (β-glucosidase (G3ase) [1]; [10]): did not affect it adversely

Ki (β-glucosidase (G3ase) [2]): 760 µM
Type of inhibition (β-glucosidase (G3ase) [2]): Competitive
Type of inhibition (β-glucosidase (G3ase) [2]; listed as glucon-o-δ-lactone): competitively inhibited
Molecule: O=C1O[C@H](CO)[C@@H](O)[C@H](O)[C@H]1O [Glucono-δ-lactone]

Molecule: O=C(O)CI [IAA, iodo acetate]
Relative activity (%) (β-glucosidase (G3ase) [1]; [9]): 126.5%
Effect on β-glucosidase (G3ase) activity (in words) (β-glucosidase (G3ase) [1]; [10]): did not affect it adversely

Molecule: [Ca+2].[Cl-].[Cl-] [CaCl2]
Relative activity (%) (β-glucosidase (G3ase) [1]; [9]): 100%

Molecule: O=C(O)CN(CCN(CC(=O)O)CC(=O)O)CC(=O)O [EDTA, ethylene diamine tetra acetate]
Effect on β-glucosidase (G3ase) activity (in words) (β-glucosidase (G3ase) [1]): did not affect it adversely
Relative activity (%) (β-glucosidase (G3ase) [1]): 100%

Molecule: O=S(=O)([O-])[O-].[Zn+2] [ZnSO4]
Relative activity (%) (β-glucosidase (G3ase) [1]; [9]): 90.4%

Molecule: O=S(=O)([O-])[O-].[Cu+2] [CuSO4]
Relative activity (%) (β-glucosidase (G3ase) [1]; [9]): 115.7%

Molecule: O=S(=O)([O-])[O-].[Mg+2] [MgSO4]
Relative activity (%) (β-glucosidase (G3ase) [1]; [9]): 95.2%

Molecule: CCCCCCCCCCCCOS(=O)(=O)[O-].[Na+] [SDS, sodium dodecyl sulfate]
activity at 1000 µM (β-glucosidase (G3ase) [1]; [9]): 31.3%

Molecule: [Cl][Hg][Cl] [HgCl2]
Relative activity (%) (β-glucosidase (G3ase) [1]; [9]): 85.5%

percent ratio of produced glucose against total substrate added (β-glucosidase (G3ase) [3]; reaction time 2 hr): 13.1%
percent ratio of produced glucose against total substrate added (β-glucosidase (G3ase) [3]; reaction time 24 hr): 17.5%
Molecule: OC[C@H]1O[C@@H](O[C@H]2[C@H](O)[C@@H](O)[C@H](O[C@H]3[C@H](O)[C@@H](O)C(O)O[C@@H]3CO)O[C@@H]2CO)[C@H](O)[C@@H](O)[C@@H]1O (some centres unmarked) [G3, cellotriose]

Molecule: O=S(=O)([O-])[O-].[Mn+2] [MnSO4]
Relative activity (%) (β-glucosidase (G3ase) [1]; [9]): 114.5%

Ki (β-glucosidase (G3ase) [2]): 700 µM
Type of inhibition (β-glucosidase (G3ase) [2]): Competitive
Type of inhibition (β-glucosidase (G3ase) [2]; listed as conduritol-β epoxide): competitively inhibited
Molecule: O[C@H]1[C@H](O)[C@@H](O)[C@@H]2O[C@@H]2[C@@H]1O (relative stereo) [Conduritol-βepoxide]

Molecule: O=S(=O)([O-])[O-].[Fe+2] [FeSO4]
Relative activity (%) (β-glucosidase (G3ase) [1]; [9]): 91.6%

Molecule: OC[C@H]1O[C@@H](O[C@H]2[C@H](O)[C@@H](O)[C@H](O[C@H]3[C@H](O)[C@@H](O)[C@H](O[C@H]4[C@H](O)[C@@H](O)[C@H](O[C@H]5[C@H](O)[C@@H](O)[C@H](O[C@H]6[C@H](O)[C@@H](O)C(O)O[C@@H]6CO)O[C@@H]5CO)O[C@@H]4CO)O[C@@H]3CO)O[C@@H]2CO)[C@H](O)[C@@H](O)[C@@H]1O (some centres unmarked) [G6, cellohexaose]
percent ratio of produced glucose against total substrate added (β-glucosidase (G3ase) [3]; reaction time 2 hr): 24.3%
percent ratio of produced glucose against total substrate added (β-glucosidase (G3ase) [3]; reaction time 24 hr): 28.2%

percent ratio of produced glucose against total substrate added (β-glucosidase (G3ase) [3]; reaction time 2 hr): 0.4%
percent ratio of produced glucose against total substrate added (β-glucosidase (G3ase) [3]; reaction time 24 hr): 5.2%
degrading activity of G3ase compared to the other cellooligosaccharides (in words) (β-glucosidase (G3ase) [4]): very low
ko (molecular activity) (β-glucosidase (G3ase) [4]; substrate of G3ase): 3.8 s⁻¹
Molecule: cellobiose [G2]

B1: β-glucosidase (G3ase) (Komagataeibacter sucrofermentans) (protein)
chain: RHAHDGGGDQADARARQVLASMSLEDKMSLLFSVDGGGFNGSVAPPGGLGSAAYLRAPQGSGLPDLQISDAGLGVRNPAHIRRNGEAVSLPSGQSTASTWDMDMARQAGVMIGREAWQSGFNILLGGGADLTRDPRGGRNFEYAGEDPLQTGRMVGSTIAGVQSQHVISTLKHYAMNDLETSRMTMSADIDPVAMRESDLLGFEIALETGHPGAVMCSYNRVNDLYACENPYLLNKTLKQDWHYPGFVMSDWGATHSSARAALAGLDQESAGDHTDARPYFRTLLAADVKAGRVPEARINDMAERVVRALFAAGLVDHPAQRGPLDVVTDTLVAQKDEEEGAVLLRNQGNILPLSPTARIAVIGGHADAGVISGGGSSQVDPIGGEAVKGPGKKEWPGDPVYFPSSPLKAMQAEAPGARITYDPGTSIASAVRAARAADVVVVYATQFTFEGMDAPSMHLDDNADALITAVAAANPRTVVVMETGDPVLMPWNSSVAGVLEAWFPGSGGGPAIARLLFGKVAPSGHLTMTFPQAESQLAHPDIAGVTADNVFEMQFHTDQELVYDEGSDVGYRWFDRNHFKPLYPFGYGLTYTTFSTDGLKVTERHGQVTATFNVHNTGTRAGVDVPQVYVGLPDGGARRLAGWQRISLAPGESRQVSVQLEPRLLAHFDGKHDRWSVPSGTFRVWLASCATDDSQQTTMHLHGRTMAP
Km [5]: 2100 µM
kcat [5]: 38.9 s⁻¹
Km [6]: 3730 µM
kcat [6]: 29.8 s⁻¹
Km [7]: 1310 µM
kcat [7]: 31.0 s⁻¹
Km [8]: 1490 µM
kcat [8]: 32.1 s⁻¹

From patent publication US6573076B1, “Gene, group of genes, and novel β-glucosidase” (Ajinomoto Co., Inc., priority 1997, dated 2003)
